{
  "source": "patent EP0119450A1",
  "about": "“Preparation of aminopyrazolines and intermediates used therein” (THE WELLCOME FOUNDATION LIMITED, priority 1983, dated 1984)",
  "key": {"Cyclooxygenase": {"target": "Cyclooxygenase", "test": "Enzyme assay, inhibition of cyclooxygenase (method based on Borgeat et al)", "format": "biochemical"}, "Lipoxygenase": {"target": "Lipoxygenase", "test": "Enzyme assay, inhibition of lipoxygenase (method based on Borgeat et al)", "format": "biochemical"}, "[1]": {"test": "Storage stability at normal room temperature in sealed containers, analysed by T.l.c.", "format": "physicochemical", "conditions": "freshly prepared samples, T.l.c. at regular intervals", "description": "Freshly prepared samples of the compound of Example 29/30B and the compound 2B (the latter also being disclosed in European Specification 55 418) were stored separately at normal room temperature in sealed containers and analysed at regular intervals by T.l.c."}, "Prostaglandin E2": {"system": "Prostaglandin E2", "test": "Prostaglandin synthesis in carrageenin sponge exudates", "format": "in vivo", "conditions": "Rattus norvegicus, po; male rats, carrageenin sponge exudate collected at 24 hours; read-out: ED50 Prostaglandin Production (rat)", "method": "(§1) The compound of Example 29/3UB was subjected to the following tests. Results are given in Table II as ED50 mg/kg upon oral administration.\n(§2) Inflammatory exudates were collected 24 hours after the subcutaneous implantation in male rats (180-220g) of sterile polyester sponges impregnated with 2% carrageenin. Prostaglandin E2 concentrations in sponge exudates were measured by bioassay and total leucocyte numbers were estimated using counting chambers and phase contrast microscopy. Drugs were administered orally in aqueous solution to groups of five animals at the time of sponge implantation, 5-8 hours later and 3 hours before sponge removal. Results are expressed as a percentage of control values obtained from similar groups of animals receiving vehicle alone. ED50 values were calculated for active compounds. The full dose-response data for lead compounds were subjected to regression analysis and ED50 values with 95% confidence limits were obtained."}, "total leucocyte numbers": {"system": "total leucocyte numbers", "test": "Leucocyte accumulation in carrageenin sponge exudates", "format": "in vivo", "conditions": "Rattus norvegicus, po, male rats, carrageenin sponge exudate collected at 24 hours", "method": "as §1, §2"}, "female rats": {"system": "female rats", "test": "Carrageenin-induced paw oedema", "format": "in vivo", "conditions": "Rattus norvegicus, po, swelling measured 1-4 hours after carrageenin", "method": "as §1\nOedema was induced by the sub-plantar injection of 2% carrageenin (0.1 ml) in the hind paws of female rats (100-130g). Swelling was measured 1-4 hours following carrageenin injection using a micrometer gauge. Drugs in aqueous solution were administered orally to groups of five rats at the time of carrageenin injection. Mean swelling was expressed as a percentage of control values obtained from similar groups of animals receiving vehicle alone."}, "female mice": {"system": "female mice", "test": "Phenylbenzoquinone (PBQ) induced writhing", "format": "in vivo", "conditions": "Mus musculus, po, p.o. 1 hour before PBQ 2.5 mg/kg i.p.", "method": "as §1\nWrithing was induced in groups of 5 female mice (20-25g) following the intraperitoneal injection of phenylbenzoquinone (PBQ; 2.5 mg/kg). Anti- nociceptive effects of drugs were assessed by observing the reduction in writhing responses 10-12½ min after PBQ injection. Drugs were administered orally in aqueous solution 1 hour before PBQ injection and drug effects were expressed as a percentage of control values obtained from animals receiving vehicle alone."}},
  "data": [
    {"smiles": "CCC(=O)N(C)C1=NN(c2cccc(C(F)(F)F)c2)CC1", "note": "[Example 32, N-methyl-N-[1-(3-trifluoromethylphenyl)-2-pyrazolin-3-yl]propionamide]", "values": [
      {"measurement": "IC50", "setting": "Cyclooxygenase", "result": "> 10", "unit": "µM"},
      {"measurement": "IC50", "setting": "Lipoxygenase", "result": 1, "unit": "µM"}
    ]},
    {"smiles": "O=CN(CC=Cc1ccccc1)C1=NN(c2cccc(C(F)(F)F)c2)CC1", "note": "[Example 9A, N-(cinnamyl)-N-[1-(3-trifluoromethylphenyl)-2-pyrazolin-3-yl]formamide]", "values": [
      {"measurement": "IC50", "setting": "Cyclooxygenase", "result": 2, "unit": "µM"},
      {"measurement": "IC50", "setting": "Lipoxygenase", "result": 1.5, "unit": "µM"}
    ]},
    {"smiles": "C=CCN(C=O)C1=NN(c2cccc(C(F)(F)F)c2)CC1", "note": "[Example 3A, N-(2-propenyl)-N-[1-(3-trifluoromethylphenyl)-2-pyrazolin-3-yl]formamide]", "values": [
      {"measurement": "IC50", "setting": "Cyclooxygenase", "result": 5, "unit": "µM"},
      {"measurement": "IC50", "setting": "Lipoxygenase", "result": 2, "unit": "µM"}
    ]},
    {"smiles": "O=CN(CC=CCCl)C1=NN(c2cccc(C(F)(F)F)c2)CC1", "note": "[Example 34]", "values": [
      {"measurement": "IC50", "setting": "Cyclooxygenase", "result": 10, "unit": "µM"},
      {"measurement": "IC50", "setting": "Lipoxygenase", "result": 3, "unit": "µM"}
    ]},
    {"smiles": "CC(=O)N(C)C1=NN(c2ccc(Br)c(C(F)(F)F)c2)CC1", "note": "[Example 45, N-methyl-N-[1-(4-bromo-3-trifluoromethylphenyl)-2-pyrazolin-3-yl]acetamide]", "values": [
      {"measurement": "IC50", "setting": "Cyclooxygenase", "result": 1, "unit": "µM"},
      {"measurement": "IC50", "setting": "Lipoxygenase", "result": 1, "unit": "µM"}
    ]},
    {"smiles": "CC(=O)N(C)C1=NN(c2cccc(C(F)(F)F)c2)CC1", "note": "[29&30B, N-methyl-N-[1-(3-trifluoromethylphenyl)-2-pyrazolin-3-yl] acetamide]", "values": [
      {"measurement": "decomposition on storage", "setting": "[1]", "result": "no significant decomposition, 2 years from the outset of the Experiment"},
      {"measurement": "IC50", "setting": "Cyclooxygenase", "result": 1, "unit": "µM"},
      {"measurement": "IC50", "setting": "Lipoxygenase", "result": 1, "unit": "µM"},
      {"measurement": "ED50", "setting": "Prostaglandin E2", "result": 35, "unit": "mg/kg"},
      {"measurement": "ED50", "setting": "total leucocyte numbers", "result": 57, "unit": "mg/kg"},
      {"measurement": "ED50", "setting": "female rats", "result": 15, "unit": "mg/kg"},
      {"measurement": "ED50", "setting": "female mice", "result": 45, "unit": "mg/kg"}
    ]},
    {"smiles": "O=CN(CC1CC1)C1=NN(c2cccc(C(F)(F)F)c2)CC1", "note": "[Example 8A, N-(cyclopropylmethyl)-N-[1-(3-trifluoromethylphenyl)-2-pyrazolin-3-yl]formamide]", "values": [
      {"measurement": "IC50", "setting": "Cyclooxygenase", "result": 8, "unit": "µM"},
      {"measurement": "IC50", "setting": "Lipoxygenase", "result": 2, "unit": "µM"}
    ]},
    {"smiles": "O=CN(Cc1ccc(F)cc1)C1=NN(c2ccc(Br)c(C(F)(F)F)c2)CC1", "note": "[Example 18B, N-[1-(4-bromo-3-trifluoromethylphenyl)-2-pyrazolin-3-yl]-N-(4-fluorobenzyl)formamide]", "values": [
      {"measurement": "IC50", "setting": "Cyclooxygenase", "result": 2, "unit": "µM"},
      {"measurement": "IC50", "setting": "Lipoxygenase", "result": 5, "unit": "µM"}
    ]},
    {"smiles": "CNC1=NN(c2cccc(C(F)(F)F)c2)CC1", "note": "[Example 2B, 3-methylamino-1-(3-trifluoromethylphenyl)-2-pyrazoline]", "values": [
      {"measurement": "decomposition on storage", "setting": "[1]", "result": "significant decomposition after six months"}
    ]},
    {"smiles": "CCCN(C=O)C1=NN(c2cccc(C(F)(F)F)c2)CC1", "note": "[Example 5A, N-(n-propyl)-N-[1-(3-trifluoromethylphenyl)-2-pyrazolin-3-yl]-formamide]", "values": [
      {"measurement": "IC50", "setting": "Cyclooxygenase", "result": 10, "unit": "µM"},
      {"measurement": "IC50", "setting": "Lipoxygenase", "result": 1, "unit": "µM"}
    ]},
    {"smiles": "C#CCN(C=O)C1=NN(c2cccc(C(F)(F)F)c2)CC1", "note": "[Example 4A, N-(2-propynyl)-N-[1-(3-trifluoromethylphenyl)-2-pyrazolin-3-yl]formamide]", "values": [
      {"measurement": "IC50", "setting": "Cyclooxygenase", "result": 3, "unit": "µM"},
      {"measurement": "IC50", "setting": "Lipoxygenase", "result": 0.5, "unit": "µM"}
    ]}
  ]
}
